The subject of assay [1] is human LS-174T colon tumour xenografts. Kind of assay: Human LS-174T colon tumour xenografts in Nude mice, test (a) 5-FU+ZD6474. The format is in vivo. The settings on record: for Inhibition of Control Tumour Growth at day 13 / Regressions: number of tumours which had regressed by ≧10% in volume by day 13, compared with pre-treatment volume on day 0: ZD6474 25 mg/kg/day p.o. d 0-13, 5-FU 75 mg/kg i.v. d 0 and 7; for Inhibition of Control Tumour Growth at day 13: versus vehicle control; for Regressions: number of tumours which had regressed by ≧10% in volume by day 13, compared with pre-treatment volume on day 0: regressed tumours/tumours in group; for tumour regressions: share of tumours regressed by day 13, same doses as the table. Here is the method: 10^7 LS-174T tumour cells in 0.2 ml of serum free Roswell Park Memorial Institute (RPMI)-1640 medium were injected subcutaneously (s.c.) into the flanks of 10 athymic (nu/nu genotype) mice. When tumour sizes reached 700-1000 mm^3 (3-4 weeks), tumours were surgically excised and smaller tumour fragments thereof (20-30 mg) were implanted s.c. in the right flank of 120 Nude mice. When tumours reached a volume of 100 to 200 mm^3 (14-16 days after the graft), mice were randomized into groups (13-15 per group) and treatment started.
• The control group (Group 1) received a daily oral (p.o.) administration of ZD6474 vehicle for 14 consecutive days (day 0-13) combined with two intravenous (i.v.) injections of saline (the vehicle for 5-FU) on day 0 and 7. • For Group 2, the treatments consisted of a daily p.o. administration of ZD6474 alone at 25 mg/kg/administration for 14 consecutive days (day 0-13) combined with two i.v. injections of saline (the vehicle for 5-FU) on day 0 and 7. ZD6474 was prepared as a suspension in 1% polysorbate 80 (i.e. a 1% (v/v) solution of polyoxyethylene (20) sorbitan mono-oleate in deionised water). • Group 3 received two i.v. injections of 5-FU at 75 mg/kg/injection, on day 0 and 7, combined with a daily p.o. administration of ZD6474 vehicle for 14 consecutive days (day 0-13). • Group 4 received daily p.o. administration of ZD6474 at 25 mg/kg/administration for 14 consecutive days (day 0-13) combined with two i.v. injections of 5-FU at 75 mg/kg/injection, on day 0 and 7.
The administration volume of ZD6474 was 10.0 ml/kg (200 μl for a 20 g mouse). The injection volume of 5-FU was 10.0 ml/kg (200 μl for a 20 g mouse).
Tumor volumes (mm^3) were assessed at least twice weekly by bilateral Vernier caliper measurement and, taking length to be the longest diameter across the tumor and width the corresponding perpendicular, calculated using the formula (π/6)×(length×width)×the square root of (length×width). Growth inhibition from the start of treatment was assessed by comparison of the differences in tumor volume between control and treated groups. For all mice, the study was stopped when tumours reached 2,000 mm^3 For all mice, the tumours were excised and weights recorded upon termination of the study.

Assay [2] has the same test system. Kind of assay: Human LS-174T colon tumour xenografts in Nude mice, test (b) CPT-11+ZD6474. Type of assay: in vivo. As to conditions: ZD6474 25 mg/kg/day p.o. d 0-20, CPT-11 20 mg/kg i.v. d 0, 7 and 14. (In xenograft studies the graft and the host belong to different species.)
Procedure: • The control group (Group 1) received a daily oral (p.o.) administration of ZD6474 vehicle for 14 consecutive days (day 0-13) combined with two intravenous (i.v.) injections of saline (the vehicle for CPT-11) on day 0 and 7. […]
Tumor volumes (mm^3) were assessed at least twice weekly by bilateral Vernier caliper measurement and, taking length to be the longest diameter across the tumor and width the corresponding perpendicular, calculated using the formula (π/6)×(length×width)×square root of (length×width). Growth inhibition from the start of treatment was assessed by comparison of the differences in tumor volume between control and treated groups. For all mice, the study was stopped when tumours reached 2,000 mm^3 For all mice, the tumours were excised and weights recorded upon termination of the study.

Molecules are shown by their SMILES.

For the compound `O=c1[nH]cc(F)c(=O)[nH]1` [5-FU, 5-fluorouracil, reference compound], in assay [1], the “Inhibition of Control Tumour Growth at day 13” value came to 68%; the “Regressions: number of tumours which had regressed by ≧10% in volume by day 13, compared with pre-treatment volume on day 0” value is given as 6/15; the tumour regressions is listed as 40%.
Take `COc1cc2c(Nc3ccc(Br)cc3F)ncnc2cc1OCC1CCN(C)CC1` [ZD6474, 4-(4-bromo-2-fluoroanilino)-6-methoxy-7-(1-methylpiperidin-4-ylmethoxy)quinazoline]: in assay [1], the “Inhibition of Control Tumour Growth at day 13” value is given as 80%; the “Regressions: number of tumours which had regressed by ≧10% in volume by day 13, compared with pre-treatment volume on day 0” value is given as 5/15; the tumour regressions is listed as 33%. Moreover, the “mean tumour volume on day 20” value in assay [2] is on record as 475 mm^3.
